Results as given in patent publication US9556165B2 (priority 2012, dated 2017).
Converted amounts (≈) assume the structure as drawn. Read-outs that look alike come from different tables or passages of the source.

Key:
Type in all cases: cell-based
[1] = test system: P. aeruginosa 2297-con (AmpC derepressed); assay: MIC determination, broth microdilution (CLSI); settings: for MIC: Pseudomonas aeruginosa, read-out: strain 8 MIC, strain 8
E. cloacae 34654 = assay: MIC determination, broth microdilution (CLSI); settings: for MIC: Enterobacter cloacae, 34654, strain 3
A. baumannii ATCC15308 = assay: MIC determination, broth microdilution (CLSI); settings: for MIC: Acinetobacter baumannii, ATCC15308, strain 9
E. coli ATCC25922 = assay: MIC determination, broth microdilution (CLSI); settings: for MIC: Escherichia coli, ATCC25922, strain 1
S. maltophilia ICB7569 = assay: MIC determination, broth microdilution (CLSI); settings: strain 10
P. aeruginosa PAO1 = assay: MIC determination, broth microdilution (CLSI); settings: for MIC: Pseudomonas aeruginosa, PAO1, strain 6
H. influenzae ATCC 49247 = assay: MIC determination, broth microdilution (CLSI); settings: broth microdilution; for MIC: Haemophilus influenzae, ATCC49247, strain 12, read-out: MIC strain 12 (H. influenzae ATCC 49247)
K. pneumoniae 60 = assay: MIC determination, broth microdilution (CLSI); settings: for MIC: Klebsiella pneumoniae, 60, strain 2
E. coli J62 = assay: MIC determination, broth microdilution (CLSI); settings: broth microdilution; for MIC: Escherichia coli, J62, strain 17, read-out: MIC strain 17 (E. coli J62)
S. aureus 133 = assay: MIC determination, broth microdilution (CLSI)
C. freundii K21/3034 = assay: MIC determination, broth microdilution (CLSI); settings: for MIC: Citrobacter freundii, K21/3034, strain 4
[2] = test system: P. aeruginosa 2297 (AmpC wt); assay: MIC determination, broth microdilution (CLSI); settings: for MIC: Pseudomonas aeruginosa, strain 7
S. pneumoniae 113 = assay: MIC determination, broth microdilution (CLSI); settings: broth microdilution; for MIC: Streptococcus pneumoniae, 113, strain 13, read-out: MIC strain 13 (S. pneumoniae 113)
Bacteria = assay: MIC determination in combination with β-lactamase inhibitors (constant 4 μg/mL)
M. morganii 126/3048 = assay: MIC determination, broth microdilution (CLSI); settings: for MIC: Morganella morganii, 126/3048, strain 5
E. coli J62-TEM-3 = assay: MIC determination, broth microdilution (CLSI); settings: broth microdilution; for MIC: Escherichia coli, J62TEM3, read-out: MIC strain 18 (E. coli J62-TEM-3), strain 18
B. fragilis 6688 = assay: MIC determination, broth microdilution (CLSI); settings: Bacteroides fragilis, 6688, strain 15; broth microdilution; read-out: MIC strain 15 (B. fragilis 6688)
C. perfringens DSM756 = assay: microbe, parasite or virus in culture; settings: Clostridium perfringens, DSM756, read-out: MIC strain 16 (C. perfringens DSM756), strain 16; broth microdilution
[3] = Staphylococcus aureus, 133, strain 11, read-out: strain 11 MIC
[4] = Staphylococcus aureus, 133, strain 14, broth microdilution, read-out: MIC strain 14 (S. aureus 133)

Structure (SMILES)	MIC strain 19 (E. coli J62-TEM-3 + 4 μg/mL clavulanic acid) (Bacteria) [µg/mL]	MIC strain 20 (E. coli J62-TEM-3 + 4 μg/mL sulbactam) (Bacteria) [µg/mL]	MIC strain 21 (E. coli J62-TEM-3 + 4 μg/mL tazobactam) (Bacteria) [µg/mL]	MIC (E. cloacae 34654) [µg/mL]	MIC (A. baumannii ATCC15308) [µg/mL]	MIC (B. fragilis 6688) [µg/mL]	MIC (E. coli ATCC25922) [µg/mL]	MIC (P. aeruginosa PAO1) [µg/mL]	MIC (C. perfringens DSM756) [µg/mL]	MIC (H. influenzae ATCC 49247) [µg/mL]	MIC (K. pneumoniae 60) [µg/mL]	MIC (E. coli J62) [µg/mL]	MIC (S. aureus 133; [3]) [µg/mL]	MIC (S. aureus 133; [4]) [µg/mL]	MIC (C. freundii K21/3034) [µg/mL]	MIC [2] [µg/mL]	MIC (S. pneumoniae 113) [µg/mL]	MIC (M. morganii 126/3048) [µg/mL]	MIC (E. coli J62-TEM-3) [µg/mL]	further results
CC1(C)[C@H](NC(=O)/C(=N\OC(COc2ccc(C(=N)NCCN)cc2)C(=O)O)c2csc(N)n2)C(=O)N1OS(=O)(=O)O (mixture of isomers) [Example 44B, (2R and 2S)-3-{4-[N-(2-Aminoethyl)carbamimidoyl]phenoxy}-2-({[(1Z)-1-(2-amino-1,3-thiazol-4-yl)-2-{[(3S)-2,2-dimethyl-4-oxo-1-(sulfooxy)azetidin-3-yl]amino}-2-oxoethylidene]amino}oxy)propanoic acid]	2	2	4	–	–	–	–	–	–	–	–	–	–	–	–	–	–	–	–	strain 8 MIC ([1]; strain 8): 8 µg/mL; strain 3 MIC (E. cloacae 34654; strain 3): 4 µg/mL; strain 9 MIC (A. baumannii ATCC15308; strain 9): 8 µg/mL; strain 1 MIC (E. coli ATCC25922; strain 1): 2 µg/mL; strain 10 MIC (S. maltophilia ICB7569): 16 µg/mL; strain 6 MIC (P. aeruginosa PAO1; strain 6): 8 µg/mL; MIC strain 12 (H. influenzae ATCC 49247) (H. influenzae ATCC 49247; strain 12): 0.5 µg/mL; strain 2 MIC (K. pneumoniae 60; strain 2): 1 µg/mL; MIC strain 17 (E. coli J62) (E. coli J62; strain 17): 2 µg/mL; strain 11 MIC (S. aureus 133; strain 11): ≦0.063 mg/L; strain 4 MIC (C. freundii K21/3034; strain 4): 2 µg/mL; strain 7 MIC [2]: 16 µg/mL; MIC strain 13 (S. pneumoniae 113) (S. pneumoniae 113; strain 13): 4 µg/mL; strain 5 MIC (M. morganii 126/3048; strain 5): 4 µg/mL; MIC strain 18 (E. coli J62-TEM-3) (E. coli J62-TEM-3; strain 18): 4 µg/mL
CC1(C)[C@H](NC(=O)/C(=N\OCCCOc2ccc(C(=N)N)cc2)c2csc(N)n2)C(=O)N1OS(=O)(=O)O [Example 58, (2Z)-2-(2-Amino-1,3-thiazol-4-yl)-2-{[3-(4-carbamimidoylphenoxy)propoxy]imino}-N-[(3S)-2,2-dimethyl-4-oxo-1-(sulfooxy)azetidin-3-yl]ethanamide]	2	2	2	4 (≈ 7.2 µM)	16 (≈ 28.8 µM)	4 (≈ 7.2 µM)	2 (≈ 3.6 µM)	16 (≈ 28.8 µM)	4 (≈ 7.2 µM)	0.5 (≈ 0.9 µM)	4 (≈ 7.2 µM)	4 (≈ 7.2 µM)	≤ 0.063	4 (≈ 7.2 µM)	1 (≈ 1.8 µM)	32 (≈ 57.6 µM)	≤ 0.063	1 (≈ 1.8 µM)	32 (≈ 57.6 µM)	MIC [1]: 16 µg/mL (≈ 28.8 µM)
C[C@H]1[C@H](NC(=O)/C(=N\OCCOc2ccc(C(=N)NCCO)cc2)c2csc(N)n2)C(=O)N1S(=O)(=O)O [Example 69, (2S,3S)-3-({(2Z)-2-(2-Amino-1,3-thiazol-4-yl)-2-[(2-{4-[N-(2-hydroxyethyl)carbamimidoyl]-phenoxy}ethoxy)imino]acetyl}amino)-2-methyl-4-oxoazetidine-1-sulfonic acid]	0.25	0.25	0.25	0.25 (≈ 0.45 µM)	2 (≈ 3.6 µM)	1 (≈ 1.8 µM)	0.125 (≈ 0.225 µM)	4 (≈ 7.2 µM)	1 (≈ 1.8 µM)	≤ 0.063	0.25 (≈ 0.45 µM)	0.25 (≈ 0.45 µM)	≤ 0.063	4 (≈ 7.2 µM)	0.125 (≈ 0.225 µM)	8 (≈ 14.4 µM)	≤ 0.063	0.125 (≈ 0.225 µM)	16 (≈ 28.8 µM)	–
CC1(C)[C@H](NC(=O)/C(=N\O[C@H](COc2ccc(C(=N)NC(CN)CN)cc2)C(=O)O)c2csc(N)n2)C(=O)N1OS(=O)(=O)O [Example 103, (2R)-2-({[(1Z)-1-(2-Amino-1,3-thiazol-4-yl)-2-{[(3S)-2,2-dimethyl-4-oxo-1-(sulfooxy)-azetidin-3-yl]amino}-2-oxoethylidene]amino}oxy)-3-{4-[N-(1,3-diaminopropan-2-yl)carbamimidoyl]phenoxy}propanoic acid]	–	–	–	–	32 (≈ 48.7 µM)	–	2 (≈ 3.04 µM)	16 (≈ 24.3 µM)	32 (≈ 48.7 µM)	0.25 (≈ 0.38 µM)	–	–	≤ 0.063	–	–	–	4 (≈ 6.08 µM)	2 (≈ 3.04 µM)	–	–
CC1(C)[C@H](NC(=O)/C(=N\OCC(Oc2ccc(C(=N)N)cc2)C(=O)O)c2csc(N)n2)C(=O)N1OS(=O)(=O)O (single isomer, unassigned) [Example 87A]	1	1	2	1 (≈ 1.71 µM)	8 (≈ 13.7 µM)	32 (≈ 54.6 µM)	1 (≈ 1.71 µM)	32 (≈ 54.6 µM)	8 (≈ 13.7 µM)	0.25 (≈ 0.427 µM)	1 (≈ 1.71 µM)	2 (≈ 3.42 µM)	≤ 0.063	–	1 (≈ 1.71 µM)	–	0.5 (≈ 0.854 µM)	0.25 (≈ 0.427 µM)	32 (≈ 54.6 µM)	–
CC1(C)[C@H](NC(=O)/C(=N\OCCOc2ccc(C(=N)NCC[N+]3(C)CCCC3)cc2)c2csc(N)n2)C(=O)N1OS(=O)(=O)O.O=C([O-])C(F)(F)F [Example 79, 1-(2-{[{4-[2-({[(1Z)-1-(2-Amino-1,3-thiazol-4-yl)-2-{[(3S)-2,2-dimethyl-4-oxo-1-(sulfo-oxy)azetidin-3-yl]amino}-2-oxoethylidene]amino}oxy)ethoxy]phenyl}(imino)-methyl]amino}ethyl)-1-methylpyrrolidinium chloride]	0.5	0.5	0.5	0.5	0.5	4	0.5	8	2	≤ 0.063	0.5	0.5	≤ 0.063	2	0.25	8	≤ 0.063	1	8	MIC [1]: 4 µg/mL
C[C@H]1[C@H](NC(=O)/C(=N\OCCOc2ccc(C(=N)N)cc2)c2csc(N)n2)C(=O)N1OS(=O)(=O)O [Example 47, (2Z)-2-(2-Amino-1,3-thiazol-4-yl)-2-{[2-(4-carbamimidoylphenoxy)ethoxy]imino}-N-[(2S,3S)-2-methyl-4-oxo-1-(sulfooxy)azetidin-3-yl]ethanamide]	0.5	0.5	0.5	1 (≈ 1.9 µM)	2 (≈ 3.79 µM)	16 (≈ 30.3 µM)	0.25 (≈ 0.474 µM)	4 (≈ 7.58 µM)	1 (≈ 1.9 µM)	0.125 (≈ 0.237 µM)	0.5 (≈ 0.948 µM)	0.5 (≈ 0.948 µM)	≤ 0.063	1 (≈ 1.9 µM)	0.5 (≈ 0.948 µM)	2 (≈ 3.79 µM)	0.125 (≈ 0.237 µM)	2 (≈ 3.79 µM)	32 (≈ 60.7 µM)	–
N=C(N)c1ccc(OCCO/N=C(\C(=O)N[C@@H]2C(=O)N(S(=O)(=O)O)[C@@H]2C(N)=O)c2csc(N)n2)cc1 [Example 66, (2S,3S)-3-{[(2Z)-2-(2-Amino-1,3-thiazol-4-yl)-2-{[2-(4-carbamimidoylphenoxy)-ethoxy]imino}acetyl]amino}-2-carbamoyl-4-oxoazetidine-1-sulfonic acid]	2	2	2	4 (≈ 7.4 µM)	4 (≈ 7.4 µM)	16 (≈ 29.6 µM)	2 (≈ 3.7 µM)	32 (≈ 59.2 µM)	16 (≈ 29.6 µM)	2 (≈ 3.7 µM)	1 (≈ 1.85 µM)	2 (≈ 3.7 µM)	1 (≈ 1.85 µM)	–	2 (≈ 3.7 µM)	32 (≈ 59.2 µM)	1 (≈ 1.85 µM)	2 (≈ 3.7 µM)	4 (≈ 7.4 µM)	–
